# Test system: CAL-120
# Conditions: 72 h
# Summary of the method: (§1)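 Each 384-well plate was pre-loaded with compound dissolved in 5 µl medium, received breast cancer cells in 20 µl suspension, and was incubated 72 h. A 2.5 µl addition of CellTiter-Blue for 2 h at 37 °C was followed by a fluorescence read at 560/590 nm. Data were normalised per plate to vehicle and a positive kill control and checked by Z'-factor. EC50 was fitted from the percent-inhibition dose-response curve, censored at the highest concentration, excluding rows with a drug sensitivity score of zero.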
row,SMILES,"EC50, CellTiter-Blue viability [nM]"
1,O=C(/C=C/c1cccnc1)NCCCCC1CCN(C(=O)c2ccccc2)CC1 [FK-866],8.66
2,CC[C@@H]1C(=O)N(C)c2cnc(Nc3ccc(C(=O)NC4CCN(C)CC4)cc3OC)nc2N1C1CCCC1 [BI 2536],3.52
3,CCN(CC)CCCC(C)Nc1c2ccc(Cl)cc2nc2ccc(OC)cc12 (stereo not given) [Mepacrine],1120
4,Nc1nc2[nH]cc(CCc3ccc(C(=O)N[C@@H](CCC(=O)O)C(=O)O)cc3)c2c(=O)[nH]1 [Pemetrexed],> 10000
5,COc1cc([C@@H]2c3cc4c(cc3[C@@H](O[C@@H]3O[C@@H]5CO[C@@H](c6cccs6)O[C@H]5[C@H](O)[C@H]3O)[C@H]3COC(=O)[C@H]23)OCO4)cc(OC)c1O [Teniposide],999
6,COc1cc2nccc(Oc3ccc(NC(=O)Nc4cc(C)on4)c(Cl)c3)c2cc1OC [Tivozanib],4610
7,O=C(Cc1ccc(-c2ccc(OCCN3CCOCC3)cc2)cn1)NCc1ccccc1 [KX2-391],31.3
8,CC(=O)Nc1cccc(-n2c(=O)n(C3CC3)c(=O)c3c(Nc4ccc(I)cc4F)n(C)c(=O)c(C)c32)c1,20.6
9,Nc1ccccc1NC(=O)c1ccc(CNC(=O)OCc2cccnc2)cc1 [Entinostat],1890
10,C=CC(=O)Nc1cc2c(Nc3ccc(F)c(Cl)c3)ncnc2cc1OCCCN1CCOCC1 [Canertinib],1720
11,CC[C@H](Nc1ncnc2[nH]cnc12)c1nc2cccc(F)c2c(=O)n1-c1ccccc1 [CAL-101],8280

# Test system: HCC1143
# Conditions: 72 h
# Summary of the method: as §1
row,SMILES,"EC50, CellTiter-Blue viability [nM]"
1,CC[C@@H]1C(=O)N(C)c2cnc(Nc3ccc(C(=O)NC4CCN(C)CC4)cc3OC)nc2N1C1CCCC1 [BI 2536],6.32
2,COc1cc([C@@H]2c3cc4c(cc3[C@@H](O[C@@H]3O[C@@H]5CO[C@@H](c6cccs6)O[C@H]5[C@H](O)[C@H]3O)[C@H]3COC(=O)[C@H]23)OCO4)cc(OC)c1O [Teniposide],829
3,O=C(Cc1ccc(-c2ccc(OCCN3CCOCC3)cc2)cn1)NCc1ccccc1 [KX2-391],13.6
4,CC(=O)Nc1cccc(-n2c(=O)n(C3CC3)c(=O)c3c(Nc4ccc(I)cc4F)n(C)c(=O)c(C)c32)c1,2.92
5,Nc1ccccc1NC(=O)c1ccc(CNC(=O)OCc2cccnc2)cc1 [Entinostat],5100
6,C=CC(=O)Nc1cc2c(Nc3ccc(F)c(Cl)c3)ncnc2cc1OCCCN1CCOCC1 [Canertinib],4170

# The remaining lines, values ahead:
row,"EC50, CellTiter-Blue viability [nM]",SMILES
1,4.08,O=C(/C=C/c1cccnc1)NCCCCC1CCN(C(=O)c2ccccc2)CC1 [FK-866]
2,1520,CCN(CC)CCCC(C)Nc1c2ccc(Cl)cc2nc2ccc(OC)cc12 (stereo not given) [Mepacrine]
3,> 10000,Nc1nc2[nH]cc(CCc3ccc(C(=O)N[C@@H](CCC(=O)O)C(=O)O)cc3)c2c(=O)[nH]1 [Pemetrexed]
4,2280,CC[C@H](Nc1ncnc2[nH]cnc12)c1nc2cccc(F)c2c(=O)n1-c1ccccc1 [CAL-101]

# Test system: HCC1599
# Conditions: 72 h
# Summary of the method: as §1
row,SMILES,"EC50, CellTiter-Blue viability [nM]"
1,Nc1ncn([C@H]2C[C@H](O)[C@@H](CO)O2)c(=O)n1 [Decitabine],> 10000
2,COc1cc([C@@H]2c3cc4c(cc3[C@@H](O[C@@H]3O[C@@H]5CO[C@@H](c6cccs6)O[C@H]5[C@H](O)[C@H]3O)[C@H]3COC(=O)[C@H]23)OCO4)cc(OC)c1O [Teniposide],1740
3,O=C(Cc1ccc(-c2ccc(OCCN3CCOCC3)cc2)cn1)NCc1ccccc1 [KX2-391],212
4,CC(=O)Nc1cccc(-n2c(=O)n(C3CC3)c(=O)c3c(Nc4ccc(I)cc4F)n(C)c(=O)c(C)c32)c1,31.5
5,Nc1ccccc1NC(=O)c1ccc(CNC(=O)OCc2cccnc2)cc1 [Entinostat],3680
6,C=CC(=O)Nc1cc2c(Nc3ccc(F)c(Cl)c3)ncnc2cc1OCCCN1CCOCC1 [Canertinib],9080

# The remaining lines, values ahead:
row,"EC50, CellTiter-Blue viability [nM]",SMILES
1,13.9,O=C(/C=C/c1cccnc1)NCCCCC1CCN(C(=O)c2ccccc2)CC1 [FK-866]
2,4650,COc1cc2nccc(Oc3ccc(NC(=O)Nc4cc(C)on4)c(Cl)c3)c2cc1OC [Tivozanib]
3,94.2,CC[C@H](Nc1ncnc2[nH]cnc12)c1nc2cccc(F)c2c(=O)n1-c1ccccc1 [CAL-101]

# Test system: MDA-MB-231
# Conditions: 72 h
# Summary of the method: as §1
row,SMILES,"EC50, CellTiter-Blue viability [nM]"
1,Nc1ncn([C@H]2C[C@H](O)[C@@H](CO)O2)c(=O)n1 [Decitabine],96
2,CC[C@@H]1C(=O)N(C)c2cnc(Nc3ccc(C(=O)NC4CCN(C)CC4)cc3OC)nc2N1C1CCCC1 [BI 2536],5.71
3,COc1cc([C@@H]2c3cc4c(cc3[C@@H](O[C@@H]3O[C@@H]5CO[C@@H](c6cccs6)O[C@H]5[C@H](O)[C@H]3O)[C@H]3COC(=O)[C@H]23)OCO4)cc(OC)c1O [Teniposide],2180
4,O=C(Cc1ccc(-c2ccc(OCCN3CCOCC3)cc2)cn1)NCc1ccccc1 [KX2-391],43.1
5,CC(=O)Nc1cccc(-n2c(=O)n(C3CC3)c(=O)c3c(Nc4ccc(I)cc4F)n(C)c(=O)c(C)c32)c1,1.8
6,Nc1ccccc1NC(=O)c1ccc(CNC(=O)OCc2cccnc2)cc1 [Entinostat],2880
7,C=CC(=O)Nc1cc2c(Nc3ccc(F)c(Cl)c3)ncnc2cc1OCCCN1CCOCC1 [Canertinib],1820

# The next lines start with the values.
row,"EC50, CellTiter-Blue viability [nM]",SMILES
1,20.1,O=C(/C=C/c1cccnc1)NCCCCC1CCN(C(=O)c2ccccc2)CC1 [FK-866]
2,614,CCN(CC)CCCC(C)Nc1c2ccc(Cl)cc2nc2ccc(OC)cc12 (stereo not given) [Mepacrine]
3,6790,COc1cc2nccc(Oc3ccc(NC(=O)Nc4cc(C)on4)c(Cl)c3)c2cc1OC [Tivozanib]

# Test system: MDA-MB-468
# Conditions: 72 h
# Summary of the method: as §1
row,SMILES,"EC50, CellTiter-Blue viability [nM]"
1,Nc1ncn([C@H]2C[C@H](O)[C@@H](CO)O2)c(=O)n1 [Decitabine],40.4
2,CC[C@@H]1C(=O)N(C)c2cnc(Nc3ccc(C(=O)NC4CCN(C)CC4)cc3OC)nc2N1C1CCCC1 [BI 2536],3.48
3,COc1cc([C@@H]2c3cc4c(cc3[C@@H](O[C@@H]3O[C@@H]5CO[C@@H](c6cccs6)O[C@H]5[C@H](O)[C@H]3O)[C@H]3COC(=O)[C@H]23)OCO4)cc(OC)c1O [Teniposide],1080
4,O=C(Cc1ccc(-c2ccc(OCCN3CCOCC3)cc2)cn1)NCc1ccccc1 [KX2-391],40.3
5,CC(=O)Nc1cccc(-n2c(=O)n(C3CC3)c(=O)c3c(Nc4ccc(I)cc4F)n(C)c(=O)c(C)c32)c1,35.7
6,Nc1ccccc1NC(=O)c1ccc(CNC(=O)OCc2cccnc2)cc1 [Entinostat],1520
7,C=CC(=O)Nc1cc2c(Nc3ccc(F)c(Cl)c3)ncnc2cc1OCCCN1CCOCC1 [Canertinib],571

# Results, then the compound that gave them:
row,"EC50, CellTiter-Blue viability [nM]",SMILES
1,3.01,O=C(/C=C/c1cccnc1)NCCCCC1CCN(C(=O)c2ccccc2)CC1 [FK-866]
2,1430,CCN(CC)CCCC(C)Nc1c2ccc(Cl)cc2nc2ccc(OC)cc12 (stereo not given) [Mepacrine]
3,2380,CC[C@H](Nc1ncnc2[nH]cnc12)c1nc2cccc(F)c2c(=O)n1-c1ccccc1 [CAL-101]

# — the supplement of paper PMC4862054
